# Where “and” joins values, the source holds several entries; their conditions need not be identical. Identical values can stand only once. Inconclusive results are not listed. Calls of active or inactive are those of the source.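 How the source made its calls: active means fitted half-maximal concentration of signal decrease at or below twice the sample's top tested concentration; inconclusive means flat curve between -70 and -30 percent, or poor fit; inactive means flat within 30 percent, signal rise, or potency above limit.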
# Molecular target: T. gondii ME49Luc in IFN-y HeLa, luciferase, 72 h
# Assay: inhibitors of Toxoplasma growth in IFN-γ-primed HeLa – cell-based, ME49Luc, luciferase, 72 h, dose response (AID 1259418)
row,SMILES,AC50
1,O=C(NC1CCCCC1)N1C[C@@H]2N[C@H](C1)C2c1ccc(-c2ccc(F)cc2)cc1 (some centres not stated),22.7 µM
2,COc1cccc(CN2C[C@@H]3N[C@H](C2)C3c2ccc(-c3ccccc3C)cc2)c1 (some centres not stated),19 µM and 12.1 µM
3,COc1cccc(S(=O)(=O)N2CCCCN3[C@H](C2)[C@H](c2ccc(C#CCC(C)C)cc2)[C@@H]3CO)c1,9.96 µM and 8.54 µM
4,COc1ccc(-c2nc(CN(c3cccc(OC)c3)S(=O)(=O)c3ccc(C)cc3)c(C)o2)cc1,8.49 µM
5,COCCN(C)C(=O)c1cc(-c2ccn(-c3ccc(OC)cc3)n2)n2ccccc12,22.3 µM
6,O=C(NCCc1csc(-c2ccccc2)n1)[C@H]1CCCN1S(=O)(=O)c1ccc(Cl)s1,12.9 µM
7,COc1ccccc1N(Cc1nc(-c2cccc(C)c2)oc1C)S(=O)(=O)c1ccc(C)cc1,9.12 µM
8,O=C(Cc1cccnc1)N1CC(=O)N2[C@H](CO)[C@@H](c3ccc(C#CC4CCCCC4)cc3)[C@@H]2C1,8.96 µM and 14.8 µM
9,O=C(Cc1ccccn1)N1CC(=O)N2[C@H](CO)[C@@H](c3ccc(C#CCC4CCCC4)cc3)[C@H]2C1,15.8 µM
10,Cc1ccc(-c2nc(CN3CCN(C(=O)Nc4ccccc4)CC3)c(C)o2)cc1,17.5 µM
11,COc1cc([C@@H]2c3cc4c(cc3C(OC3OC5COC(C)OC5C(O)C3O)C3OCC(=O)[C@@H]32)OCO4)cc(OC)c1O (some centres not stated),8.96 µM
12,O=S(=O)(c1ccc2c(c1)CCCC2)N1CCC2(CC1)NCCN=C2NCc1ccc(F)cc1,9.4 µM
13,CC(=O)NC1=NN(C(C)=O)C(C)(c2ccccc2)S1 (configuration not stated),11 µM and 6.03 µM
14,O=S1(=O)c2ccccc2O[C@H]2CCN(Cc3ccc(Cl)cc3)CC[C@H]2N1CC1CC1,32 µM
15,O=S(=O)(c1ccccc1)N1CCCCN2[C@@H](CO)[C@@H](c3ccc(C#CC4CCCC4)cc3)[C@@H]2C1,17.5 µM and 6.86 µM
16,COc1ccc(-c2nc(NCCCN3CCC(N4CCCCC4)CC3)c3ccccc3n2)cc1,31.3 µM
17,COc1cccc(CNC2=NCCNC23CCN(S(=O)(=O)c2ccc4c(c2)CCCC4)CC3)c1,16.3 µM
18,COc1ccc(-c2nc(NCCc3ccc(OC)c(OC)c3)c3ccccc3n2)cc1,17.4 µM
19,Cc1cc(C)c(S(=O)(=O)N2CCC(C(=O)NCCc3csc(-c4ccccc4)n3)CC2)cc1C,14.7 µM
20,O=C(C1CCCCC1)N1C[C@@H]2N[C@H](C1)C2c1ccc(-c2ccccc2F)cc1 (some centres not stated),16.7 µM
21,Fc1cccc(CN2C[C@@H]3N[C@H](C2)C3c2ccc(/C=C/c3ccccc3)cc2)c1 (some centres not stated),12.1 µM and 17.5 µM
22,Cc1ccccc1-c1nc(CN2CCN(C(=O)NC3CCCC3)CC2)c(C)o1,> 39 µM (inactive)
23,O=C(c1ccc[nH]1)N1CCC2(CC1)COCCN(c1ncccn1)C2,7.07 µM

row,SMILES,AC50
1,COc1ccccc1CNC(=O)CCC1N=C2c3ccccc3N=C(SCc3cccc(F)c3)N2C1=O (configuration not stated),> 39 µM (inactive)
2,Cc1ccc(-c2coc(-c3ccc(NC(=O)Nc4cc(F)ccc4F)cc3)n2)cc1,27.7 µM
3,CN(c1ccc(F)cc1)c1nc(-c2ccc(Cl)cc2)nc2ccccc12,13.9 µM
4,COc1ccc(S(=O)(=O)N2CCCCN3[C@H](CO)[C@@H](c4ccc(C#CCC(C)C)cc4)[C@H]3C2)cc1,4.13 µM and 4.65 µM
5,COc1ccc(CN2CCC(c3cc4c(ncn4C)c(-c4ccc(OC)cc4)n3)CC2)cc1,24.7 µM
6,COc1ccccc1-c1nc(C)c(-c2ccc(SCc3c(F)cccc3Cl)nn2)s1,38.4 µM
7,O=S(=O)(c1ccc2c(c1)CCCC2)N1CCC2(CC1)NCCN=C2NCc1cccc(F)c1,5.26 µM
8,COc1ccc(-c2nc3c(s2)CN(S(=O)(=O)c2cc(C)cc(C)c2)CC3)cc1,3.89 µM and 11.8 µM
9,Cc1ccccc1S(=O)(=O)N1C[C@@H]2N[C@H](C1)C2c1ccc(/C=C/c2ccccc2)cc1 (some centres not stated),9.34 µM
10,CCCNC(=O)N1[C@H](C#N)[C@H](c2ccc(-c3ccccc3F)cc2)[C@@H]1CO,3.6 µM
11,CS(=O)(=O)N1CCC(C(=O)NCCc2csc(-c3cccs3)n2)CC1,> 39 µM (inactive)
12,N#Cc1ccc(-c2ccc(C3[C@@H]4CN(S(=O)(=O)c5ccc(F)cc5)C[C@H]3N4)cc2)cc1 (some centres not stated),12.1 µM and 13.8 µM
13,Cc1ccc(S(=O)(=O)N2CCC3(CC2)NCCN=C3NCc2ccc3c(c2)OCO3)cc1C,22.4 µM
14,Fc1ccc(Nc2nc(SCc3ccc(Cl)cc3)nc3ccccc23)cc1F,17.3 µM
15,Cc1ccccc1S(=O)(=O)N1CCCCN2[C@H](C1)[C@H](c1ccc(C#CCN(C)C)cc1)[C@@H]2CO,18.6 µM
16,COc1ccccc1C(=O)N1CCC2(CC1)Nc1cc(F)ccc1-n1cccc12,> 39 µM (inactive)
17,CC(C)CC#Cc1ccc([C@@H]2[C@@H](CO)N3CCCCN(C(=O)Nc4ccccc4)C[C@H]23)cc1,13.5 µM and 9.09 µM
18,COc1ccc(-c2nc(NC3CCCC3)c3ccccc3n2)cc1,35.8 µM
19,O=C(CCC1N=C2c3ccccc3N=C(SCc3ccc(F)cc3)N2C1=O)NC1CCCCC1 (configuration not stated),16.2 µM
20,COc1ccc(S(=O)(=O)N2CCc3c([nH]c4ccccc34)C2c2cc(F)ccc2F)cc1 (configuration not stated),17.1 µM
21,CCc1cc(C2CCCN2C(=O)c2cc(C(F)(F)F)nn2C)on1 (configuration not stated),> 39 µM (inactive)
22,Cc1cccc(CNC2=NCCNC23CCN(S(=O)(=O)c2ccc(CC(C)C)cc2)CC3)c1,8.2 µM
23,Cc1ccc(CNc2nc(-c3ccc(Cl)cc3)nc3ccccc23)cc1,37 µM

row,SMILES,AC50
1,O=C(NCCc1csc(-c2ccccc2)n1)C1CCN(C(=O)c2ccccc2Br)CC1,24.6 µM
2,CSc1cccc(NC(=O)CN2CCC3(CC2)N=C(c2cccc(Cl)c2)C(=O)N3)c1,23.8 µM
3,CCc1ccc(S(=O)(=O)N2CCC3(CCCN(Cc4c(C)noc4C)C3)C2)cc1 (configuration not stated),22.9 µM
4,COc1cc(Nc2nc(SCc3ccc(F)cc3)nc3ccccc23)cc(OC)c1,13.2 µM
5,COc1ccc(-c2nc3c(s2)CN(C(=O)Nc2cccc(C)c2)CC3)cc1OC,> 39 µM (inactive)
6,Cc1cccc(CNC2=NCCNC23CCN(S(=O)(=O)c2ccc4c(c2)CCCC4)CC3)c1,5.08 µM
7,Clc1ccc(-c2nc(NCc3ccc4c(c3)OCO4)c3ccccc3n2)cc1,11.3 µM
8,COc1ccc(Cl)cc1NC(=O)COc1nc(C)nc2ccccc12,24.1 µM
9,O=C(CCC1N=C2c3ccccc3N=C(SCc3cc(=O)n4cc(Cl)ccc4n3)N2C1=O)NC1CCCCC1 (configuration not stated),> 39 µM (inactive)
10,O=S(=O)(c1ccccc1)N(CC(F)(F)F)c1ccc(C(O)(C(F)(F)F)C(F)(F)F)cc1,19 µM
11,COc1cccc(NC(=O)COc2nc(C)nc3ccccc23)c1,36.7 µM
12,N#C[C@H]1N[C@@H](CO)[C@@H]1c1ccc(C#CC2CCCCC2)cc1,19.1 µM
13,COc1ccc(-c2nc(Nc3ccc(CN4CCC(C)CC4)cc3)c3ccccc3n2)cc1,9.71 µM and 14.6 µM
14,COc1cccc(-c2nc(C)c(-c3ccc(SCc4ccccc4)nn3)s2)c1,12.7 µM
15,Cc1ccc(-c2nc3c(s2)CN(C(=O)Nc2ccc(C)cc2C)CC3)cc1,35 µM
16,COc1ccc(N(Cc2nc(-c3ccc(C)cc3)oc2C)S(=O)(=O)c2ccc(C)cc2)cc1,13.2 µM
17,COc1cccc(NC(=O)N2CC(=O)N3[C@@H](CO)[C@H](c4ccc(C#CCC5CCCC5)cc4)[C@@H]3C2)c1,20 µM
18,O=C(NC1CCCC1)N1CCCCN2[C@H](CO)[C@@H](c3ccc(-c4cccnc4)cc3)[C@H]2C1,> 39 µM (inactive)
19,COc1cccc(C(=O)Nc2ccc3c(c2)C(=O)N(C)[C@@H]2CC[C@H](CC(=O)NCc4ccc(F)cc4)O[C@@H]2CO3)c1,9.13 µM
20,COc1ccc(S(=O)(=O)N(Cc2nc(-c3cccc(C)c3)oc2C)c2ccccc2OC)cc1,6 µM
21,CN(C)C(=O)c1ccc(-c2ccc3c(c2)[C@H]2[C@H](CCN2C(=O)C2CCCC2)[C@@H](CO)N3C)cc1,18.8 µM
